Here are results for one compound from publication PMC8667897, “Natural inspired piperine-based ureas and amides as novel antitumor agents towards breast cancer” (Journal of Enzyme Inhibition and Medicinal Chemistry, 2021).

The target of the assay is T1, VEGFR-2 (Homo sapiens, UniProt P35968).
T1 construct: gene KDR
The assay can be described thus: in vitro VEGFR-2 enzyme inhibition assay. Type of assay: biochemical.

For orientation: IC50 means the point on the concentration scale where inhibition reaches its midpoint. Lower therefore signals greater potency in that assay.

T1 sequence (P35968 20-1356): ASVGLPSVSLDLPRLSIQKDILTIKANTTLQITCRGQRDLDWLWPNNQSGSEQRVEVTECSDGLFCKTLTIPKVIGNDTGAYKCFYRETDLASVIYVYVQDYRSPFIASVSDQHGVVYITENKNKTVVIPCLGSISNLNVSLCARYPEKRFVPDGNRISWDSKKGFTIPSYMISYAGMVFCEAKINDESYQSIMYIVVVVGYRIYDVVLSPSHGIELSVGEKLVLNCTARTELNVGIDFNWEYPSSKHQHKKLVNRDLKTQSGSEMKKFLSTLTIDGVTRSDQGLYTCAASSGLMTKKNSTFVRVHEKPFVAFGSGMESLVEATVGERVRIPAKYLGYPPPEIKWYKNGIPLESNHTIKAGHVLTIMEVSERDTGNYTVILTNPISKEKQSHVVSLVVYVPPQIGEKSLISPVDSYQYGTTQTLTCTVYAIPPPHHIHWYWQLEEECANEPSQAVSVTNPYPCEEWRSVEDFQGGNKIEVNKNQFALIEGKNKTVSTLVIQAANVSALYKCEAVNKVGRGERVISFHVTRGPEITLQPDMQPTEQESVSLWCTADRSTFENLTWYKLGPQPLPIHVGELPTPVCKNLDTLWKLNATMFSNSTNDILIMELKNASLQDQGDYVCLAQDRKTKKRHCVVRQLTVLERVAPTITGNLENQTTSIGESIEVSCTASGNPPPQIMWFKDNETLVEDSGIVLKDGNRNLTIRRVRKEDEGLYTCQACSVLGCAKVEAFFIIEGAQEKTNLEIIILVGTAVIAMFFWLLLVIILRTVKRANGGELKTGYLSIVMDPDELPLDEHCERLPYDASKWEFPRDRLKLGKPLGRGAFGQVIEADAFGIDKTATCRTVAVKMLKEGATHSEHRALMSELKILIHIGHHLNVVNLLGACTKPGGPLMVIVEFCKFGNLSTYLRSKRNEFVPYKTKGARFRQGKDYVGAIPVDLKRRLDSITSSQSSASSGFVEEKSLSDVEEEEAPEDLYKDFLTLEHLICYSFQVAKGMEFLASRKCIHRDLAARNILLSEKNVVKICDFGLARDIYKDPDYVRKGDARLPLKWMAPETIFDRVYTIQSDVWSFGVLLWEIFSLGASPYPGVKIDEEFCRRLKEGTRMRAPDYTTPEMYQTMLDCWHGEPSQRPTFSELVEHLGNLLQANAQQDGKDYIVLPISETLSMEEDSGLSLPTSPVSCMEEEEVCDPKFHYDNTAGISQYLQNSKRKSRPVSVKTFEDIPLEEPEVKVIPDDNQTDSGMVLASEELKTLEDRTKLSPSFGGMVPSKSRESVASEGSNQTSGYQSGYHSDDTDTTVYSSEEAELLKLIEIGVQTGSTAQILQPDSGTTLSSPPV

As to `O=C(N/C=C/C=C/c1ccc2c(c1)OCO2)Nc1ccc(Cl)cc1` [8q, 1-((1E,3E)-4-(Benzo[d]1,3dioxol-5-yl)buta-1,3-dien-1-yl)-3–(4-chlorophenyl)urea], the IC50 is 231 ± 5 nM.
